The values that follow come from patent publication US8729096B2, “Imidazolidine-2,4-dione derivatives as N-formyl peptide receptor 2 modulators” (Allergan, Inc., priority 2012, dated 2014).

Usually EC50 stands for the concentration needed to bring the measured effect to its halfway point.

The target in this experiment is T1, FPR2 (Homo sapiens, UniProt P25090).
T1 construct: expressed in transfected cells
T1 sequence (P25090 1-351): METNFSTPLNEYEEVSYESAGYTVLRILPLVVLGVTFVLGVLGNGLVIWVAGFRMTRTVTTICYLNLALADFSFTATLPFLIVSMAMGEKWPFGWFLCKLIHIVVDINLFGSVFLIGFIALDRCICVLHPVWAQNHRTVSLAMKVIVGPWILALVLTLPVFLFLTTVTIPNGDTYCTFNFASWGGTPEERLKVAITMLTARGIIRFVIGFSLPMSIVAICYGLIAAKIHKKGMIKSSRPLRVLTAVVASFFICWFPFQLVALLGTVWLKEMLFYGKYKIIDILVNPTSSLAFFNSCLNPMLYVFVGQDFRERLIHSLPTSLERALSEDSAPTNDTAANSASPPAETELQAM
Description: FLIPR Tetra compound-induced calcium activity in CHO-Ga16 cells stably expressing FPR2. The class given is cell-based. To be noted: calcium activity on FLIPR Tetra; for Efficacy (fraction): efficacy given as a fraction; for EC50: tested at 0.61 to 10,000 nM. Here is the method: CHO-Ga16 cells stably expressing FPR2 were cultured in (F12, 10% FBS, 1% PSA, 400 μg/ml geneticin and 50 μg/ml hygromycin) and HEK-Gqi5 cells stable expressing FPR2 were cultured in (DMEM high glucose, 10% FBS, 1% PSA, 400 μg/ml geneticin and 50 μg/ml hygromycin). In general, the day before the experiment, 18,000 cells/well were placed in a 384-well clear bottom poly-d-lysine coated plate. The following day the screening compound-induced calcium activity was assayed on the FLIPR^Tetra. The drug plates were prepared in 384-well microplates using the EP3 and the MultiPROBE robotic liquid handling systems. Compounds were tested at concentrations ranging from 0.61 to 10,000 nM. Results are expressed as EC50 (nM) and efficacy values.

Take `CCC1(C(C)C)NC(=O)N(CC(=O)Nc2ccc(Br)cc2)C1=O` (stereo not shown) [Compound 1, N-(4-bromophenyl)-2-(4-ethyl-4-isopropyl-2,5-dioxoimidazolidin-1-yl)acetamide]: the “Efficacy (fraction)” value was “(0.99)” and the EC50 is 56 nM.
Regarding `O=C(CN1C(=O)C2CCCN2C1=O)Nc1ccc(Br)cc1` (stereo not shown) [Compound 2, N-(4-bromophenyl)-2-(1,3-dioxotetrahydro-1H-pyrrolo[1,2-c]imidazol-2(3H)-yl)acetamide], the “Efficacy (fraction)” value was “(0.93)” and the EC50 was determined as 343 nM.
Consider `O=C(CN1C(=O)C2CCCCN2C1=O)Nc1ccc(Br)cc1` (stereo not shown) [Compound 3, N-(4-bromophenyl)-2-(1,3-dioxohexahydroimidazo[1,5-a]pyridin-2(3H)-yl)acetamide], for which the “Efficacy (fraction)” value is reported as “(1.0)” and the EC50 worked out at 243 nM.
For `COCC1(C)NC(=O)N(CC(=O)Nc2ccc(Br)cc2)C1=O` (stereo not shown) [Compound 5] the same measures were “(1.00)” and 306 nM.
In the case of `O=C(CN1C(=O)NC2(CCC2)C1=O)Nc1ccc(Br)cc1` [Compound 6, N-(4-Bromophenyl)-2-(6,8-dioxo-5,7-diazaspiro[3.4]octan-7-yl)acetamide], the “Efficacy (fraction)” value is on record as “(1.00)” and the EC50 came to 647 nM.
